In ChEMBL document CHEMBL5096155, “Recent advance of peptide-based molecules and nonpeptidic small-molecules modulating PD-1/PD-L1 protein-protein interaction or targeting PD-L1 protein degradation” (Eur J Med Chem, 2021):
Square brackets hold non-standard residues; d marks the D form. Peptide text beside a SMILES is read from it. * marks the point of attachment. ξ: configuration not given here. X1 = NC(CO)C(=O)NC(Cc1ccccc1)C(=O)NCCCCN*; ξE = NC(CCC(=O)O)C(=O)O

Key:
Splenocyte [1] = assay: Rescue of cell viability in mouse PD-L1 stimulated splenocyte at 100 nM incubated for 72 hrs by CFSE proliferation assay; type: functional
[2] = molecular target: T1, Programmed cell death protein 1/Programmed cell death 1 ligand 1 (Homo sapiens, UniProt Q15116+Q9NZQ7); assay: Inhibition of PD-1/PD-L1 interaction (unknown origin) by HTRF binding assay; type: protein-complex assay
B16-F10 [3] = assay: Antitumor activity in mouse B16-F10 cells xenografted mouse lung metastasis model assessed as reduction in lung metastasis; type: functional; design: scale not given: the % may be the effect or the level left
[4] = molecular target: T1, Programmed cell death protein 1/Programmed cell death 1 ligand 1; assay: Inhibition of PD-1/PD-L1 interaction (unknown origin); type: protein-complex assay
[5] = molecular target: T1, Programmed cell death protein 1/Programmed cell death 1 ligand 1; assay: Inhibition of PD-1/PD-L1 interaction (unknown origin) incubated for 1 to 24 hrs by HTRF assay; type: protein-complex assay
[6] = molecular target: T1, Programmed cell death protein 1/Programmed cell death 1 ligand 1; assay: Inhibition of recombinant human PD-1/PD-L1 interaction incubated for 40 mins by HTRF binding assay; type: protein-complex assay
[7] = Cytoprotective activity against rat PMA-stimulated PBMC cells expressing PD-1 co-cultured with human HEK293 cells expressing PD-L2 assessed as rescue of cell proliferation by cell proliferation assay; type: functional, cell-based
[8] = Cytoprotective activity against rat PMA-stimulated PBMC cells expressing PD-1 co-cultured with human MDA-MB-231 cells expressing PD-L1 assessed as rescue of cell proliferation by cell proliferation assay; type: functional, cell-based
[9] = Cytoprotective activity against mouse PD-1 stimulated T cell assessed as rescue of PD-1 stimulated inhibition of IFN-gamma production by ELISA; type: functional, cell-based
[10] = molecular target: T1, Programmed cell death protein 1/Programmed cell death 1 ligand 1; assay: Inhibition of PD-1/PD-L1 interaction (unknown origin) incubated for 15 mins by HTRF assay; type: protein-complex assay
[11] = molecular target: T2, Programmed cell death 1 ligand 1 (Homo sapiens, UniProt Q9NZQ7); assay: Binding affinity to human recombinant PD-L1 by surface plasmon resonance assay
Splenocyte [12] = assay: Cytoprotective activity against mouse splenocyte co-cultured with MDA-MB-231 cells overexpressing PD-L1 assessed as rescue of cell proliferation at 100 nM by cell proliferation assay; type: functional
NCI-H460 = assay: Antitumor activity in human NCI-H460 cells xenografted Balb/c mouse assessed as reduction in tumor mass at 4 mg/kg,sc administrated upto 72 hrs; type: functional; design: scale not given: the % may be the effect or the level left
[13] = molecular target: T3, V-type immunoglobulin domain-containing suppressor of T-cell activation (Homo sapiens, UniProt Q9H7M9); assay: Inhibition of VISTA (unknown origin)
T3 sequence (Q9H7M9 whole entry): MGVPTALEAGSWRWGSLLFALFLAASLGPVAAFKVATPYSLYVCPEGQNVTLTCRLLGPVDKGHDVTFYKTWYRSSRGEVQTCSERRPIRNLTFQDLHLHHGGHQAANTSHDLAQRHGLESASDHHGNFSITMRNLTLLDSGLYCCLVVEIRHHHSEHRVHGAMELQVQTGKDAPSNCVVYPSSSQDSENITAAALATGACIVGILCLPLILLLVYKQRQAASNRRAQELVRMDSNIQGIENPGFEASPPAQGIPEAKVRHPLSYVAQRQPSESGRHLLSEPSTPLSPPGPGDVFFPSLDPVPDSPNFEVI

[14] = molecular target: T2, Programmed cell death 1 ligand 1; assay: Inhibition of PD-L1 (unknown origin)
B16-F10 [15] = assay: Antitumor activity in mouse B16-F10 cells xenografted mouse model assessed as tumor growth inhibition at 15 mg/kg,sc; type: functional
[16] = molecular target: T1, Programmed cell death protein 1/Programmed cell death 1 ligand 1; assay: Inhibition of human PD-1/PD-L1 interaction by HTRF binding assay; type: protein-complex assay
CT26 = assay: Antitumor activity against mouse CT26 cells xenografted BALB/c mouse assessed as reduction in tumor growth; type: functional; design: scale not given: the % may be the effect or the level left

T2 sequence (Q9NZQ7 whole entry): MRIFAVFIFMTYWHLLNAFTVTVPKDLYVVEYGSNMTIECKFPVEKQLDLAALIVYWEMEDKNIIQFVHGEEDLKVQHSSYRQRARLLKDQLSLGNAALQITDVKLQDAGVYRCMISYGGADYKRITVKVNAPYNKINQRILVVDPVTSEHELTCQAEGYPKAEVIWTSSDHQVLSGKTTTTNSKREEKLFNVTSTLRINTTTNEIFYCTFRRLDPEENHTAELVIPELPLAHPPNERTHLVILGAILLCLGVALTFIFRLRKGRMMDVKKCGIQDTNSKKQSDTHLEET
T1 sequence (Q15116 whole entry): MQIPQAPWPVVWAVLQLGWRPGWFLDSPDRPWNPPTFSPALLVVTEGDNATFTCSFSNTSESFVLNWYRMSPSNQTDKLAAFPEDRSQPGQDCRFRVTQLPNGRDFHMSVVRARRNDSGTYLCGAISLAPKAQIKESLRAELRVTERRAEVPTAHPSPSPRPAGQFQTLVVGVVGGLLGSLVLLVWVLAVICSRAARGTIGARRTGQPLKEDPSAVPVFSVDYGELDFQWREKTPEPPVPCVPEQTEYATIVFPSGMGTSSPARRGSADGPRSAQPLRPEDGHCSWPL
T1 sequence (Q9NZQ7 whole entry): as the sequence (Q9NZQ7 whole entry) above

## C[C@@H](O)[C@H](N)c1nnc([C@H](CCC(N)=O)NC(=O)N[C@@H](CO)C(=O)O)o1
Splenocyte [1]
  Activity: 92%

## Cc1cc(CN[C@@H](CO)C(=O)O)c(OCc2cncc(C#N)c2)cc1OCc1cccc(-c2ccc3c(c2)OCCO3)c1C
[2]
  IC50: 2.25 nM

## Cc1c(COc2cc(OCc3cncc(C#N)c3)c(CN[C@@H](CO)C(=O)O)cc2Cl)cccc1-c1cccc(OCCCN2CCC(O)CC2)c1
[2]
  IC50: 0.48 nM

## C[C@@H](O)[C@@H]1NC(=O)C(N[C@@H](CO)C(=O)O)CCC(=O)NCCCCC(C(=O)N[C@@H](CO)C(=O)N[C@@H](Cc2ccccc2)C(N)=O)NC(=O)[C@H](CO)NC1=O (some centres undefined)
B16-F10 [3]
  Activity: 54%

## C[C@H](O)[C@@H]1NC(=O)N[C@H](C(N)=O)C(=O)NNC(=O)[C@H](CO)NC(=O)CCOCCOCCNC1=O
Splenocyte [1]
  Activity: 95%

## Cc1c(-c2ccccc2)cccc1-c1nc2cc(CNCCO)ccc2o1
[4]
  IC50: < 1000 nM

## COc1cc(/C=C/c2cccc(-c3ccccc3)c2)cc(OC)c1CN[C@](C)(CO)C(=O)O
[5]
  IC50: 48 nM

## N#Cc1c(NC(=O)c2ccc(CNCCO)cn2)cccc1-c1ccccc1
[6]
  IC50: < 10 nM

## N#Cc1c(-c2ccccc2)cccc1N1CCC(NC2CCCOC2)CC1 (centres undefined)
[4]
  IC50: < 1000 nM

## CC[C@H](C)[C@H](NC(=O)[C@H](CCC(N)=O)NC(=O)[C@H](C)NC(=O)[C@H](CCCCN)NC(=O)[C@H]1CCCN1C(=O)[C@H](C)NC(=O)[C@H](CC(C)C)NC(=O)[C@H](CCC(N)=O)NC(=O)[C@@H](NC(=O)[C@@H](NC(=O)[C@H](CCCNC(=N)N)NC(=O)[C@H](Cc1ccccc1)NC(=O)[C@H](CCCCNC(=O)[C@H](Cc1ccccc1)NC(=O)[C@H](CO)NC(=O)[C@H](CCC(=O)O)NC(=O)[C@H](CO)NC(=O)[C@@H](NC(=O)[C@H](CC(N)=O)NC(=O)[C@@H](N)CO)C(C)O)NC(=O)[C@H](Cc1ccccc1)NC(=O)[C@H](CO)NC(=O)[C@H](CCC(=O)O)NC(=O)[C@H](CO)NC(=O)[C@@H](NC(=O)[C@H](CC(N)=O)NC(=O)[C@@H](N)CO)[C@@H](C)O)C(C)C)[C@@H](C)O)C(=O)N[C@@H](CCCCN)C(=O)N[C@@H](CCC(=O)O)C(N)=O (some centres undefined)
[7]
  EC50: 0.72 nM
[8]
  EC50: 0.41 nM

## COc1cc(NS(=O)(=O)c2ccc(N)cc2)ncn1 [SULFAMONOMETHOXINE]
[9]
  IC50: > 400 nM

## C[C@H](O)[C@@H]1NC(=O)NCc2nc(no2)[C@H](CO)NC(=O)COCCOCCNC1=O
[10]
  IC50: < 10 nM

## H-GNWDYNSQRAQLYNQ-OH
[11]
  Kd: 1380 nM

## Cc1c(COc2cc(OCc3cccc(C#N)c3)c(CN[C@H](CCO)C(=O)O)cc2Cl)cccc1-c1cccc(COc2cc(OCc3cccnc3)c(CN[C@@H](CCO)C(=O)O)cc2Cl)c1
[2]
  IC50: 0.04 nM

## C[C@H](O)[C@@H]1NC(=O)CCOCCOCCNC(=O)[C@H](CO)NC(=O)N[C@H](C(N)=O)C(=O)NNC1=O
Splenocyte [1]
  Activity: 94%

## C[C@H](O)[C@H](NC(=O)N[C@@H](CC(N)=O)C(=O)NNC(=O)[C@@H](N)CO)C(=O)O
Splenocyte [1]
  Activity: 68%
[7]
  EC50: 40 nM
Splenocyte [12]
  Activity: 87%
[8]
  EC50: 30 nM

## C[C@H](NC(=O)[C@H](Cc1ccc(O)cc1)NC(=O)[C@H](CCC(N)=O)NC(=O)CNC(=O)[C@@H](N)CO)C(=O)N[C@@H](CO)C(=O)N[C@@H](Cc1ccc(O)cc1)C(=O)N[C@@H](Cc1cnc[nH]1)C(=O)N[C@@H](CS)C(=O)N[C@@H](Cc1c[nH]c2ccccc12)C(=O)N[C@@H](CS)C(=O)N[C@@H](Cc1c[nH]c2ccccc12)C(=O)N[C@@H](CCCNC(=N)N)C(=O)N[C@@H](CC(=O)O)C(=O)N1CCC[C@H]1C(=O)NCC(=O)N[C@@H](CCCNC(=N)N)C(=O)N[C@@H](CO)C(=O)NCC(=O)NCC(=O)N[C@@H](CO)C(=O)N[C@@H](CCCCN)C(=O)O (H-SGQYASYHCWCWRDPGRSGGSK-OH)
[11]
  Kd: 94 nM
NCI-H460
  Activity: 56%

## C[C@H](O)[C@H](NC(=O)N[C@@H](CC(N)=O)c1nnc([C@@H](N)CO)s1)C(=O)O
[13]
  IC50: 17 nM
[14]
  IC50: 37 nM

## O=C(O)[C@H](CO)NCc1cc(Cl)c(OCc2cccc(-c3ccccc3)c2Br)cc1OCc1cccnc1
B16-F10 [15]
  inhibition in vivo at 15 mg/kg: 64.1%

## COc1nc(OCc2cccc(-c3cccc(COc4ccc(CNCCNC(C)=O)c(OC)n4)c3C)c2C)ccc1CNCCNC(C)=O
[16]
  IC50: 125 nM

## C[C@@H](O)[C@H](N)c1noc([C@H](Cc2ccc(O)cc2)NC(=O)N2CCC[C@H]2C(=O)O)n1
Splenocyte [1]
  Activity: 99%

## Cc1c(/C=C/c2nc(CNC(C)(CO)C(=O)O)ccc2C(F)(F)F)cccc1-c1ccc2c(c1)OCCO2 (centres undefined)
[5]
  IC50: 18 nM

## NCCCC[C@H](NC(=O)N[C@@H](CC(N)=O)C(=O)NNC(=O)[C@@H](N)CO)C(=O)O
Splenocyte [12]
  Activity: 87%

## CNC(=O)C[C@@H]1NC(=O)O[C@@H]([C@H](C)O)C(=O)NCCOCCOCC(=O)N[C@@H](CCO)c2noc1n2
[10]
  IC50: < 10 nM

## Cc1c(COc2cc(OCc3cccc(C#N)c3)c(CN[C@@H](CO)C(=O)O)cc2Cl)cccc1-c1ccc2c(c1)OCCO2
[2]
  IC50: 1.48 nM

## C[C@@H](O)[C@H](NC(=O)[C@H](CC(N)=O)NC(=O)[C@@H](N)CO)C(=O)N[C@@H](CO)C(=O)NC(CCC(=O)NCCCCNC(=O)C(Cc1ccccc1)NC(=O)C(N)CO)C(N)=O (some centres undefined) (H-SNTS[ξE](X1)-NH2)
B16-F10 [3]
  Activity: 64%

## Cc1c(NC(=O)c2cc(CN3CCCC[C@H]3C(=O)O)cn(C)c2=O)cccc1-c1ccccc1
[6]
  IC50: < 100 nM

## CC(O)[C@H](N)c1nnc([C@]2(NC(=O)N[C@@H](CO)C(=O)O)C[C@H](CC#N)C2)o1 (some centres undefined)
CT26
  Activity: 63.7%
